# Experimental data: US12544370B2, “Methods for cancer therapy” (ASCENTAGE PHARMA (SUZHOU) CO., LTD., priority 2018, dated 2026)
# System: TKI-resistant patients with chronic phase (CP) or accelerated phase (AP) CML
# Assay: Phase I study, safety / treatment related adverse events (Example 1)
# Excerpt: The eligible patients received treatments until disease progression or intolerable toxicities. The primary efficacy endpoint in the CML AP and CP patients, was complete hematological response (CHR) and major cytogenetic response (MCyR) respectively, MCyR includes partial cytogenetic response (PCyR) and complete cytogenetic response (CCyR). Blood samples were collected at various time points on Day 1-2 and Day 27-28 during cycle 1 for PK analyses.
# • 3 to 6 subjects in each dose group (traditional 3+3 dose increasing method) • Up to 15 subjects in the MTD dose group (safety and PK characteristics) • Dose extension studies: • Up to 60 subjects (CP/CML-AP) • Extended dose selection is based on initial safety and efficacy Study Endpoints Primary Endpoint
# [1] = Example 1, Table 1, 70 patients
smiles,measurement,setting,value
"Cc1ccc(C(=O)Nc2ccc(CN3CCN(C)CC3)c(C(F)(F)F)c2)cc1C#Cc1cnc2[nH]ncc2c1 [compound of formula (I-A), 3-(2-(1H-pyrazolo[3,4-b]pyridin-5-yl)ethynyl)-4-methyl-N-(4-((4-methylpiperazin-1-yl)methyl)-3-(trifluoromethyl)phenyl)-benzamide]","TRAE ALT increased, Any grade",[1],15 (21%) n (%)
same,"TRAE ALT increased, Grade 3-4",[1],0 n (%)
same,"TRAE AST increased, Any grade",[1],17 (24%) n (%)
same,"TRAE AST increased, Grade 3-4",[1],0 n (%)
same,"TRAE Anaemia, Any grade",[1],6 (8.6%) n (%)
same,"TRAE Anaemia, Grade 3-4",[1],5 (7.1%) n (%)
same,"TRAE CPK increased, Any grade",[1],18 (26%) n (%)
same,"TRAE CPK increased, Grade 3-4",[1],1 (1.4%) n (%)
same,"TRAE Creatinine increased, Any grade",[1],4 (5.7%) n (%)
same,"TRAE Creatinine increased, Grade 3-4",[1],0 n (%)
same,"TRAE GGT increased, Any grade",[1],10 (14%) n (%)
same,"TRAE GGT increased, Grade 3-4",[1],0 n (%)
same,"TRAE Hyperbilirubinemia, Any grade",[1],20 (29%) n (%)
same,"TRAE Hyperbilirubinemia, Grade 3-4",[1],0 n (%)
same,"TRAE Hyperglycaemia, Any grade",[1],5 (7.1%) n (%)
same,"TRAE Hyperglycaemia, Grade 3-4",[1],0 n (%)
same,"TRAE Hypertriglyceridaemia, Any grade",[1],36 (51%) n (%)
same,"TRAE Hypertriglyceridaemia, Grade 3-4",[1],2 (2.9%) n (%)
same,"TRAE Hypocalcaemia, Any grade",[1],25 (36%) n (%)
same,"TRAE Hypocalcaemia, Grade 3-4",[1],0 n (%)
same,"TRAE Hypokalaemia, Any grade",[1],12 (17%) n (%)
same,"TRAE Hypokalaemia, Grade 3-4",[1],0 n (%)
same,"TRAE Hyponatraemia, Any grade",[1],5 (7.1%) n (%)
same,"TRAE Hyponatraemia, Grade 3-4",[1],0 n (%)
same,"TRAE Leucocytopenia, Any grade",[1],12 (17%) n (%)
same,"TRAE Leucocytopenia, Grade 3-4",[1],12 (17%) n (%)
same,"TRAE Myalgia, Any grade",[1],11 (16%) n (%)
same,"TRAE Myalgia, Grade 3-4",[1],0 n (%)
same,"TRAE Pyrexia, Any grade",[1],13 (19%) n (%)
same,"TRAE Pyrexia, Grade 3-4",[1],4 (5.7%) n (%)
same,"TRAE Rash, Any grade",[1],9 (13%) n (%)
same,"TRAE Rash, Grade 3-4",[1],0 n (%)
same,"TRAE Skin hyperpigmentation, Any grade",[1],17 (24%) n (%)
same,"TRAE Skin hyperpigmentation, Grade 3-4",[1],0 n (%)
same,"TRAE Skin mass, Any grade",[1],6 (8.6%) n (%)
same,"TRAE Skin mass, Grade 3-4",[1],0 n (%)
same,"TRAE Thrombocytopenia, Any grade",[1],35 (50%) n (%)
same,"TRAE Thrombocytopenia, Grade 3-4",[1],35 (50%) n (%)
same,"TRAEs Hematological, Any grade",[1],36 (51%) n (%)
same,"TRAEs Hematological, Grade 3-4",[1],36 (51%) n (%)
same,"TRAEs Non-hematological, Any grade",[1],67 (96%) n (%)
same,"TRAEs Non-hematological, Grade 3-4",[1],11 (16%) n (%)
same,"TRAEs Overall, Any grade",[1],67 (96%) n (%)
same,"TRAEs Overall, Grade 3-4",[1],44 (63%) n (%)
same,ALT increased leading to dose interruption/reduction,"Example 1, 20 mg (n = 4)",0 n (%)
same,AST increased leading to dose interruption/reduction,"Example 1, 20 mg (n = 4)",0 n (%)
same,Amylase increased leading to dose interruption/reduction,"Example 1, 20 mg (n = 4)",1(25%) n (%)
same,Anemia leading to dose interruption/reduction,"Example 1, 20 mg (n = 4)",0 n (%)
same,Atrial fibrillation leading to dose interruption/reduction,"Example 1, 20 mg (n = 4)",0 n (%)
same,Cardiomyopathy leading to dose interruption/reduction,"Example 1, 20 mg (n = 4)",0 n (%)
same,GGT increased leading to dose interruption/reduction,"Example 1, 20 mg (n = 4)",0 n (%)
same,Hyperkalemia leading to dose interruption/reduction,"Example 1, 20 mg (n = 4)",0 n (%)
same,Hypertriglyceridemia leading to dose interruption/reduction,"Example 1, 20 mg (n = 4)",0 n (%)
same,Hypocalcemia leading to dose interruption/reduction,"Example 1, 20 mg (n = 4)",0 n (%)
same,Lacunar infarction leading to dose interruption/reduction,"Example 1, 20 mg (n = 4)",0 n (%)
same,Lipase increased leading to dose interruption/reduction,"Example 1, 20 mg (n = 4)",0 n (%)
same,Thrombocytopenia leading to dose interruption/reduction,"Example 1, 20 mg (n = 4)",1(25%) n (%)
same,ALT increased leading to dose interruption/reduction,"Example 1, 30 mg (n = 37)",0 n (%)
same,AST increased leading to dose interruption/reduction,"Example 1, 30 mg (n = 37)",0 n (%)
same,Amylase increased leading to dose interruption/reduction,"Example 1, 30 mg (n = 37)",0 n (%)
same,Anemia leading to dose interruption/reduction,"Example 1, 30 mg (n = 37)",1 n
same,"Anemia leading to dose interruption/reduction, percent of cohort","Example 1, 30 mg (n = 37)",(2.7%)
same,Atrial fibrillation leading to dose interruption/reduction,"Example 1, 30 mg (n = 37)",1 n
same,"Atrial fibrillation leading to dose interruption/reduction, percent of cohort","Example 1, 30 mg (n = 37)",(2.7%)
same,Cardiomyopathy leading to dose interruption/reduction,"Example 1, 30 mg (n = 37)",0 n (%)
same,GGT increased leading to dose interruption/reduction,"Example 1, 30 mg (n = 37)",0 n (%)
same,Hyperkalemia leading to dose interruption/reduction,"Example 1, 30 mg (n = 37)",1 n
same,"Hyperkalemia leading to dose interruption/reduction, percent of cohort","Example 1, 30 mg (n = 37)",(2.7%)
same,Hypertriglyceridemia leading to dose interruption/reduction,"Example 1, 30 mg (n = 37)",1 n
same,"Hypertriglyceridemia leading to dose interruption/reduction, percent of cohort","Example 1, 30 mg (n = 37)",(2.7%)
same,Hypocalcemia leading to dose interruption/reduction,"Example 1, 30 mg (n = 37)",2 n
same,"Hypocalcemia leading to dose interruption/reduction, percent of cohort","Example 1, 30 mg (n = 37)",(5.4%)
same,Lacunar infarction leading to dose interruption/reduction,"Example 1, 30 mg (n = 37)",0 n (%)
same,Lipase increased leading to dose interruption/reduction,"Example 1, 30 mg (n = 37)",0 n (%)
same,Thrombocytopenia leading to dose interruption/reduction,"Example 1, 30 mg (n = 37)",12 n
same,"Thrombocytopenia leading to dose interruption/reduction, percent of cohort","Example 1, 30 mg (n = 37)",(32%)
same,ALT increased leading to dose interruption/reduction,"Example 1, 40 mg (n = 37)",1 n
same,"ALT increased leading to dose interruption/reduction, percent of cohort","Example 1, 40 mg (n = 37)",(2.7%)
same,AST increased leading to dose interruption/reduction,"Example 1, 40 mg (n = 37)",1 n
same,"AST increased leading to dose interruption/reduction, percent of cohort","Example 1, 40 mg (n = 37)",(2.7%)
same,Amylase increased leading to dose interruption/reduction,"Example 1, 40 mg (n = 37)",0 n (%)
same,Anemia leading to dose interruption/reduction,"Example 1, 40 mg (n = 37)",0 n (%)
same,Atrial fibrillation leading to dose interruption/reduction,"Example 1, 40 mg (n = 37)",0 n (%)
same,Cardiomyopathy leading to dose interruption/reduction,"Example 1, 40 mg (n = 37)",0 n (%)
same,GGT increased leading to dose interruption/reduction,"Example 1, 40 mg (n = 37)",1 n
same,"GGT increased leading to dose interruption/reduction, percent of cohort","Example 1, 40 mg (n = 37)",(2.7%)
same,Hyperkalemia leading to dose interruption/reduction,"Example 1, 40 mg (n = 37)",0 n (%)
same,Hypertriglyceridemia leading to dose interruption/reduction,"Example 1, 40 mg (n = 37)",0 n (%)
same,Hypocalcemia leading to dose interruption/reduction,"Example 1, 40 mg (n = 37)",0 n (%)
same,Lacunar infarction leading to dose interruption/reduction,"Example 1, 40 mg (n = 37)",0 n (%)
same,Lipase increased leading to dose interruption/reduction,"Example 1, 40 mg (n = 37)",1 n
